Measurements published in US20210100245A1, “SYNERGISTIC FORMULATIONS FOR CONTROL AND REPELLENCY OF BITING ARTHROPODS” (BEDOUKIAN RESEARCH, INC., priority 2019, published 2021).

Test system: Adult female Aedes aegypti
Test: Membrane feeder repellency test: mosquitoes probing treated collagen membranes over blood-filled wells
Format: in vivo
Conditions: for Test results (quantity not named; percentage from mosquito probing counts): 6.25 μl on collagen membrane, probes counted every 2 min for 20 min; for Test results, percentage relative to 0.3 wt % DEET in the same test: total repellent 0.30%, relative to 0.3 wt % DEET (=100%)
Procedure: Adult female Aedes aegypti were obtained from the i2LResearch USA, Inc. colony. Two hundred fifty (250) mosquitoes were used per replicate (seven replicates). Mosquitoes were at least 6 days old and had been deprived of sucrose solution for at least 18 hours prior to testing.
An exposure container was used to present the mosquitoes with a choice of blood-filled wells that were covered with collagen membranes (3 cm in diameter). The collagen membranes were treated by pipetting 6.25 μI of the test treatment onto the appropriate membrane and spreading it evenly with the tip of the pipette.
Exposure container. A 30.5 cm×30.5 cm×30.5 cm container (rigid plastic frame and a sleeved entry on one side and a sliding trap door on the bottom). The container was supported by four (4 cm high) legs.
Membrane feeder. Five wells (3 cm in diameter×8 mm in depth) in line on a hollow plastic block (6 cm wide×22 cm long×3 cm deep). The plastic block fit into the bottom of the exposure container. Hoses mounted on either end of the membrane feeder carried warm water that was pumped from a water bath. The sliding plastic trap door in the bottom of the exposure container covered and uncovered the wells in the membrane feeder, allowing mosquitoes to access the blood-filled wells that were covered with treated collagen membranes.
Study set-up. The membrane feeder was connected to a heated water bath, and warm water passed through the feeder via a circulating pump so that the wells were warmed to 96-100° F. Seventy-two (72) mg of ATP (disodium salt) were added to 26 ml of bovine blood. Sodium citrate was also added to the blood during collection to prevent clotting. The blood was poured into the wells until it completely filled each well (meniscus slightly above the level of the well).
Circular pieces (3 cm in diameter) of collagen membrane were placed over each of the wells. Care was taken to eliminate all air bubbles from between the membrane and the surface of the blood. Once wells were prepared, the blood was allowed to warm until the membrane temperature reached […]. Temperature was confirmed using a surface thermometer.
Treatment and exposure to mosquitoes. Once the collagen membranes were placed over the blood-filled wells, they were treated as described above. The membranes were allowed to dry for five minutes. Then the exposure container was placed on the membrane feeder. The trap door in the floor of the container was slid back, exposing the mosquitoes to the membranes. The number of mosquitoes probing the membrane covering each well was recorded every two minutes for twenty minutes. If a minimum of 20 total control probes were not achieved in a replicate, the replicate was repeated.
The above procedures were repeated until seven acceptable replicates were completed. […]

Question: Which results are given for `CC1CCC(C(C)C)C(OCC(O)CO)C1` (stereo not shown) [Coolact 10, menthoxypropane-1,2-diol]?
Answer: Test results (quantity not named; percentage from mosquito probing counts) (concentration 0.15%): 45.4%; Test results (quantity not named; percentage from mosquito probing counts) (concentration 0.30%): 41.5%

Question: Which “Test results, percentage relative to 0.3 wt % DEET in the same test” value does the source give for `CCN(CC)C(=O)c1cccc(C)c1` [DEET, N,N-diethyl-m-toluamide, reference compound] here?
Answer: The value was 100.0%.

Question: `CCNC(=O)C1CC(C)CCC1C(C)C` (stereo not shown) [WS3, N-ethyl-p-menthane-3-carboxamide] was tested. Which “Test results, percentage relative to 0.3 wt % DEET in the same test” value did it give?
Answer: Its value is 130.0%.
